What all share (test): Dose-response to palbociclib, CyQUANT NF cell proliferation after 4 days
Common to all, as to assay type: cell-based

The test system of one test is MCF7-PR. The method, then: (§1) The inventors next generated experimental cell lines models with acquired resistance to palbociclib derived from commercially available breast cancer cell lines MCF7 and T47D (ATCC), which were cultured according to supplier's recommendation. An MCF7-derived palbociclib-resistant (MCF7-PR) and a T47D-derived palbociclib-resistant (T47D-PR) cell lines were established by treating MCF7 and T47D with palbociclib for 6 months, starting at low concentration (1 nM) and increasing them at each passage until reaching 1 µM). MCF7-PR and T47D-PR cells were maintained in complete medium with 500 nM of palbociclib. The IC50 of sensitive MCF7 and T47D as well as derived palbociclib-resistant MCF7-PR and T47D-PR cell lines was evaluated by seeding 5000 tumor cells per well in 96-well plates and adding the following day increasing doses of Palbociclib. Proliferation was assessed after 4 days with CyQUANT NF Cell Proliferation (ThermoFisher Scientific) according to manufacturer's instructions. Fluorescence measurements were taken using FL800 Fluorescence plate reader with excitation at 485 nm and emission detection at 520 nm. Surviving fraction was calculated relative to untreated control cells using the formula: % Cell viability = (treated/untreated)*100 and IC^50 values were calculated with a non-linear regression model using GraphPad PRISM software.
(§2) Next, FGFR4-depletion was induced by means of stable shRNA expression and confirmed by Western blotting using standard procedures. Specifically, sensitive MCF7 and resistant MCFR7-PR and ZR751 were infected with two independent stable FGFR4 shRNAs (shFGFR4#1 and shFGFR4#2) and, as a control, a non-targeting scramble shRNA (shControl) (Fig.2C-2D). Response to palbociclib was evaluated by incubating the cells with increasing concentrations of palbociclib as described above.

The test system of another test is MCF7. Conditions: Homo sapiens; parental sensitive MCF7. As to the method: as §1
Another test concerns T47D. As to conditions: Homo sapiens; parental sensitive T47D. The method, then: as §1
The test system of another test is T47D-PR. Conditions: palbociclib-resistant T47D-PR. As to the method: as §1
The next test has as its system ZR751. Conditions: Homo sapiens, ZR-75-1. As to the method:
as §1, §2
In order to validate FGFR4 as a driver of CDK4/6i resistance, the inventors developed ZR751 cells that overexpressed wild-type FGFR4 (FGFR4wt) or constitutively active FGFR4 (FGFR4 Y367C) (Roidl et al., 2010). Control cells were infected with the backbone vector expressing red fluorescent protein (RFP).

SMILES strings stand for the structures. Read-outs that look alike come from different tables or passages of the source.

In general, IC50 refers to the midpoint of a concentration-inhibition curve. In the case of `CC(=O)c1c(C)c2cnc(Nc3ccc(N4CCNCC4)cn3)nc2n(C2CCCC2)c1=O` [palbociclib], the IC50 came to 0.576 µM with MCF7-PR (FGFR4 knockdown shFGFR4#1, read-out: IC50 MCF7-PR shFGFR4#1); 0.449 µM in the test with MCF7-PR (FGFR4 knockdown shFGFR4#2, read-out: IC50 MCF7-PR shFGFR4#2); 1.55 µM in the test on MCF7-PR (non-targeting scramble shRNA, read-out: IC50 MCF7-PR shControl); 2 µM in the test with MCF7-PR (palbociclib-resistant MCF7-PR, read-out: IC50 MCF7-PR); 0.25 µM in the test with MCF7; 0.05 µM in the test with T47D. The IC50 with T47D-PR was 1.8 µM; in the test with ZR751 (FGFR4 knockdown shFGFR4#1, read-out: IC50 ZR751 shFGFR4#1), 0.0802 µM; in the test on ZR751 (FGFR4 knockdown shFGFR4#2, read-out: IC50 ZR751 shFGFR4#2), 0.125 µM; in the test with ZR751 (control cells with backbone vector expressing RFP, read-out: IC50 ZR751 RFP) it was 0.354 µM; with ZR751 (non-targeting scramble shRNA, read-out: IC50 ZR751 shControl), 3.8 µM; with ZR751 (overexpressing wild-type FGFR4, read-out: IC50 ZR751 FGFR4wt), ~4200 µM.
